Data reported in ChEMBL document CHEMBL4689842, “EUbOPEN Chemogenomics Library wave 1” (2021).

How the values were obtained:
Format in all cases: toxicity, cell-based
Fibroblast = test: Incucyte cell viability with human fibroblast; details: 10 µM, compound concentration 10 uM
U2OS = test: Incucyte cell viability with U2OS; details: human, 10 µM, compound concentration 10 uM
HEK-293T = test: Incucyte cell viability with HEK293T; details: human, 10 µM, compound concentration 10 uM
[1] = 0 h, replicate number 1, timepoint 0 hours
[2] = 12 h, replicate number 1, timepoint 12 hours
[3] = 18 h, replicate number 1, timepoint 18 hours
[4] = 24 h, replicate number 1, timepoint 24 hours
[5] = 0 h, replicate number 2, timepoint 0 hours
[6] = 6 h, replicate number 1, timepoint 6 hours
[7] = 6 h, replicate number 2, timepoint 6 hours
[8] = 12 h, replicate number 2, timepoint 12 hours
[9] = 18 h, replicate number 2, timepoint 18 hours
[10] = 24 h, replicate number 2, timepoint 24 hours
Note: filed as whole numbers so only -1 and 0 and 1 occur.

| Compound | Growth Rate (Fibroblast; [1]) | Growth Rate (Fibroblast; [2]) | Growth Rate (Fibroblast; [3]) | Growth Rate (Fibroblast; [4]) | Growth Rate (U2OS; [1]) | Growth Rate (U2OS; [5]) | Growth Rate (U2OS; [2]) | Growth Rate (U2OS; [3]) | Growth Rate (U2OS; [4]) | Growth Rate (HEK-293T; [1]) | Growth Rate (HEK-293T; [5]) | Growth Rate (HEK-293T; [6]) | Growth Rate (HEK-293T; [7]) | Growth Rate (HEK-293T; [2]) | Growth Rate (HEK-293T; [3]) | Growth Rate (HEK-293T; [4]) | Growth Rate (Fibroblast; [7]) | Growth Rate (Fibroblast; [6]) | Growth Rate (U2OS; [6]) | Growth Rate (HEK-293T; [10]) | also measured |
| --- | --- | --- | --- | --- | --- | --- | --- | --- | --- | --- | --- | --- | --- | --- | --- | --- | --- | --- | --- | --- | --- |
| C=C(c1ccc(C(=O)O)cc1)c1cc2c(cc1C)C(C)(C)CCC2(C)C [BEXAROTENE] | 0 | 1 | 1 | 1 | 0 | -1 | 1 | 1 | 1 | 1 | 0 | 0 | 1 | 0 | 0 | 0 | – | – | – | – | Growth Rate (HEK-293T; [8]): 1 |
| CS(=O)(=O)NCC[C@H](NC(=O)c1cncc2c1cnn2-c1ccc(F)cc1)c1ccnc(S(C)(=O)=O)c1 [BI 9307] | 0 | – | – | – | 0 | – | 1 | 1 | 1 | 0 | – | 1 | – | 1 | 1 | 1 | 0 | – | – | – | Growth Rate (Fibroblast; [8]): 0; Growth Rate (Fibroblast; [9]): 1; Growth Rate (Fibroblast; [10]): 0 |
| CC(=O)N1CCC(c2ccc(C(=O)NC(=N)N)cc2C(F)(F)F)CC1 [BI 9627] | 0 | 0 | 1 | 0 | – | 0 | 1 | 1 | 1 | 0 | – | – | 1 | 1 | 1 | 1 | 0 | 1 | 1 | – | Growth Rate (Fibroblast; [5]): 1; Growth Rate (Fibroblast; [9]): 0 |
| COc1cc(N2CCC(N3CCN(C)CC3)CC2)ccc1Nc1ncc(Cl)c(Nc2ccccc2P(C)(C)=O)n1 [BRIGATINIB] | 1 | 0 | 0 | 0 | 0 | – | 0 | 0 | 0 | – | – | 0 | – | 0 | 1 | 1 | – | 0 | 0 | 0 | Growth Rate (U2OS; [8]): 1 |
| O=C1NC(c2ccccn2)Sc2ccccc21 (stereo not drawn) [BTZO-4] | 0 | 1 | 1 | 0 | 0 | – | 0 | 0 | 0 | 1 | – | 0 | – | 0 | 0 | 1 | – | 1 | 0 | 0 | Growth Rate (Fibroblast; [10]): 1; Growth Rate (U2OS; [8]): 1; Growth Rate (U2OS; [9]): 1; Growth Rate (U2OS; [10]): 1; Growth Rate (HEK-293T; [9]): 1 |
| O=C(NOCC1CC1)c1ccc(F)c(F)c1Nc1ccc(I)cc1Cl [CI-1040] | 0 | 1 | 1 | 1 | 0 | – | 0 | 0 | 0 | 0 | 1 | – | 0 | 0 | 0 | 0 | 1 | – | 0 | – | – |
| C#C[C@]1(O)CC[C@H]2[C@@H]3CCc4cc(O)ccc4[C@H]3CC[C@@]21C [ETHINYL ESTRADIOL] | – | 0 | 0 | 0 | – | 0 | 0 | 0 | 0 | -1 | 0 | – | – | – | – | – | – | 0 | 0 | 1 | Growth Rate (U2OS; [7]): 1 |
| CC(C)(C(=O)O)c1ccc(C(O)CCCN2CCC(C(O)(c3ccccc3)c3ccccc3)CC2)cc1.Cl (stereo not drawn) [FEXOFENADINE HYDROCHLORIDE] | 0 | 0 | 0 | 0 | – | 0 | 1 | 1 | 1 | 1 | 0 | 1 | – | 1 | 1 | 1 | – | 0 | – | – | Growth Rate (Fibroblast; [5]): 1; Growth Rate (Fibroblast; [8]): 1; Growth Rate (Fibroblast; [9]): 1; Growth Rate (Fibroblast; [10]): 1; Growth Rate (U2OS; [7]): 0; Growth Rate (U2OS; [9]): 0; Growth Rate (U2OS; [10]): 0 |
| O=C(Nc1nc2cccc(-c3ccc(CN4CCS(=O)(=O)CC4)cc3)n2n1)C1CC1 [FILGOTINIB] | 0 | 0 | 0 | 0 | 1 | – | 0 | 0 | 0 | 0 | – | 0 | – | 0 | 0 | 0 | 0 | 1 | 1 | – | Growth Rate (U2OS; [7]): 0 |
| CC(C)(C)OC(=O)N1CCCC1CNC1CCC(c2cc(F)ccc2F)(S(=O)(=O)c2ccc(Cl)cc2)CC1 (stereo not drawn) [GSI-NC] | – | 0 | 0 | 0 | 0 | – | 0 | 0 | 0 | 0 | 1 | 0 | – | 1 | 1 | 1 | 1 | 0 | 0 | 0 | Growth Rate (Fibroblast; [5]): 0; Growth Rate (HEK-293T; [8]): 0 |
